According to patent US20260250318A1, “COMPOSITIONS AND METHODS FOR CROSSING THE BLOOD BRAIN BARRIER” (VOYAGER THERAPEUTICS, INC., priority 2022, published 2026):

Tested on: brains, heart, liver, muscle, and DRG of the NHPs
Assay: Maturation of TTM-001 and TTM-002 capsids, NGS enrichment in NHP tissues
Type: in vivo
From the text: This Example describes maturation of the AAV9 capsid variants, TTM-001 (SEQ ID NO: 981 (amino acid) and 983 (DNA), comprising SEQ ID NO: 941 (encoded by SEQ ID NO: 942)) and TTM-002 (SEQ ID NO: 982 (amino acid) and 984 (DNA), comprising SEQ ID NO: […] (encoded by SEQ ID NO: 944)) in NHPs to further enhance their transduction and biodistribution in the central nervous system as well as other tissues, and evolve the AAV capsid variants to provide further cross-species compatibility. Two approaches were used to mature the TTM-001 and TTM-002 capsid sequences in order to randomize and mutate within and around the peptide insert comprised within loop IV of the capsid variant. […] In the first maturation approach, sets of three contiguous amino acids were randomized across the mutagenesis region in the TTM-001 and TTM-002 sequences, which spanned from position 450 to position 466, numbered according to SEQ ID NO: 981 and 982. In the second maturation approach, mutagenic primers were used to introduce point mutations at a low frequency, scattered across the mutagenesis region in the TTM-001 and TTM-002 sequences ranging from position 449 to position 466, numbered according to SEQ ID NO: 981 and 982. AAV capsid variants arising from each maturation approach for TTM-001 and TTM-002 were pooled together, for subsequent testing and characterization in NHPs.
The library of pooled matured AAV capsid variants generated using the first maturation approach and the second maturation approach for the TTM-001 and TTM-002 AAV capsid variants were injected into two NHPs. […] Following RNA recovery and RT-PCR amplification, a systematic NGS enrichment analysis was performed to calculate the fold enrichment ratio relative to an AAV9 control, and the peptides comprised within the variants were identified.
Following the RNA recovery and NGS analysis from the second maturation approach, approximately 680,000 capsid variants were identified. The 680,000 matured capsid variants were then filtered based on samples with a raw virus count greater than 10 and a coefficient of variance (CV) of less than 1, which was calculated for each peptide across the brain samples taken from the two NHPs. […] Using this filtering criteria, this led to approximately 64,000 matured capsid variants.

[1] = NHP DRG, NGS, relative to AAV9 control
[2] = NHP brain, NGS, relative to AAV9 control
[3] = NHP heart, NGS, relative to AAV9 control
[4] = NHP liver DNA, NGS, relative to AAV9 control
[5] = NHP liver RNA, NGS, TTM-001 and TTM-002 matured AAV capsid variants, relative to AAV9 control
[6] = NHP muscle, NGS, relative to AAV9 control
[7] = NGS fold-enrichment, DRG, NHP, relative to AAV9
[8] = NGS fold-enrichment, brain, NHP, relative to AAV9
[9] = NGS fold-enrichment, heart, NHP, relative to AAV9
[10] = NGS fold-enrichment, liver DNA, NHP, relative to AAV9
[11] = NGS fold-enrichment, liver RNA, NHP, relative to AAV9
[12] = NGS fold-enrichment, muscle, NHP, relative to AAV9

Row | Sequence | Fold Enrichment relative to AAV9, DRG (NHP) [1] [fold] | Fold Enrichment relative to AAV9, Brain (NHP) [2] [fold] | Fold Enrichment relative to AAV9, Heart (NHP) [3] [fold] | Fold Enrichment relative to AAV9, Liver DNA (NHP) [4] [fold] | Fold Enrichment relative to AAV9, Liver RNA (NHP) [5] [fold] | Fold Enrichment relative to AAV9, Muscle (NHP) [6] [fold] | Fold Enrichment relative to AAV9, DRG (NHP) [7] [fold] | Fold Enrichment relative to AAV9, Brain (NHP) [8] [fold] | Fold Enrichment relative to AAV9, Heart (NHP) [9] [fold] | Fold Enrichment relative to AAV9, Liver DNA (NHP) [10] [fold] | Fold Enrichment relative to AAV9, Liver RNA (NHP) [11] [fold] | Fold Enrichment relative to AAV9, Muscle (NHP) [12] [fold]
1 | KTINGRRSPHMKAQNQQT | 0.000 | 0.000 | 0.000 | 3.510 | 12.136 | 0.000 | – | – | – | – | – | –
2 | KTINGSGSPHCALQNQQT | 0.000 | 0.000 | 0.000 | 3.867 | 11.404 | 0.000 | – | – | – | – | – | –
3 | KTINGSGSPHCPAQNQQT | 0.000 | 0.000 | 0.000 | 1.409 | 13.359 | 0.000 | – | – | – | – | – | –
4 | KTINGSGSPHCRVQNQQT | 0.000 | 0.000 | 0.000 | 1.203 | 31.043 | 0.000 | – | – | – | – | – | –
5 | KTINGSGSPHFPFQNQQT | – | – | – | – | – | – | 0.000 | 0.000 | 0.000 | 3.715 | 10.322 | 0.000
6 | KTINGSGSPHFPWQNQQT | 0.000 | 0.000 | 0.000 | 1.731 | 53.587 | 0.000 | – | – | – | – | – | –
7 | KTINGSGSPHFYRQNQQT | 0.000 | 0.000 | 0.000 | 9.342 | 31.724 | 0.000 | – | – | – | – | – | –
8 | KTINGSGSPHGRYQNQQT | – | – | – | – | – | – | 0.000 | 0.000 | 0.000 | 0.778 | 10.028 | 0.000
9 | KTINGSGSPHIVWQNQQT | 0.000 | 0.000 | 0.000 | 6.056 | 58.021 | 0.000 | – | – | – | – | – | –
10 | KTINGSGSPHKSGQNPQT | – | – | – | – | – | – | 0.000 | 0.000 | 0.000 | 11.790 | 11.014 | 0.000
11 | KTINGSGSPHLCTQNQQT | 0.000 | 0.000 | 0.000 | 2.489 | 11.176 | 0.000 | – | – | – | – | – | –
12 | KTINGSGSPHLCVQNQQT | 0.000 | 0.000 | 0.000 | 1.428 | 19.030 | 0.000 | – | – | – | – | – | –
13 | KTINGSGSPHLPTQNQQT | 0.000 | 0.000 | 0.000 | 3.127 | 20.704 | 0.000 | – | – | – | – | – | –
14 | KTINGSGSPHLRWQNQQT | 0.000 | 0.000 | 0.000 | 9.649 | 21.014 | 0.000 | – | – | – | – | – | –
15 | KTINGSGSPHLVYQNQQT | 0.000 | 0.000 | 0.000 | 1.045 | 14.196 | 0.000 | – | – | – | – | – | –
16 | KTINGSGSPHMAFQNQQT | 0.000 | 0.000 | 0.000 | 0.542 | 17.644 | 0.000 | – | – | – | – | – | –
17 | KTINGSGSPHPFVQNQQT | 0.000 | 0.000 | 0.000 | 1.286 | 12.091 | 0.000 | – | – | – | – | – | –
18 | KTINGSGSPHPKRQNQQT | 0.000 | 0.000 | 0.000 | 2.355 | 23.055 | 0.000 | – | – | – | – | – | –
19 | KTINGSGSPHPRKQNQQT | 0.000 | 0.000 | 0.000 | 3.248 | 12.249 | 0.000 | – | – | – | – | – | –
20 | KTINGSGSPHPSCQNQQT | 0.000 | 0.000 | 0.000 | 2.790 | 27.796 | 0.000 | – | – | – | – | – | –
21 | KTINGSGSPHQGCQNQQT | 0.000 | 0.000 | 0.000 | 1.037 | 17.676 | 0.000 | – | – | – | – | – | –
22 | KTINGSGSPHRCCQNQQT | 0.000 | 0.000 | 0.000 | 2.213 | 19.084 | 0.000 | – | – | – | – | – | –
23 | KTINGSGSPHRIKQNQQT | 0.000 | 0.000 | 0.000 | 3.064 | 21.720 | 0.000 | – | – | – | – | – | –
24 | KTINGSGSPHRPWQNQQT | 0.000 | 0.000 | 0.000 | 4.936 | 16.869 | 0.000 | – | – | – | – | – | –
25 | KTINGSGSPHRWLQNQQT | 0.000 | 0.000 | 0.000 | 6.882 | 28.147 | 0.000 | – | – | – | – | – | –
